Where two headings read alike, the source gives them in different places.
Columns and labels:
human NR1/NR2B = human NR1/NR2B (Homo sapiens (Human), UniProt Q13224); test: NR2B antagonist activity (Fluo-4 calcium influx assay); format: cell-based
human NR1/NR2A = human NR1/NR2A (Homo sapiens (Human), UniProt Q05586+Q12879); test: NR2A activity (Fluo-4 calcium influx assay); format: cell-based
hERG channel = hERG channel (Homo sapiens (Human), UniProt Q12809); settings: pH 7.35
CYP2D6 = CYP2D6 (Homo sapiens (Human), UniProt P10635); test: CYP P450 enzyme inhibition in pooled human liver microsome; settings: read-out: CYP2D6 IC50, dextromethorphan 5 μM
Male mice (strain NLMN) = test: Forced swim test; format: in vivo, mouse; settings: intraperitoneal, imipramine 32 mg/kg IP
Rats = test: Electroconvulsive threshold (ECT) test; format: in vivo, rat; settings: p.o. 60 minutes before ECS, theophylline 128 mg/kg, diazepam 16 mg/kg
[1] = HEK293 cells stably expressing human NR1/NR2A, glutamate 100 μM, glycine 50 μM, read-out: NR2A IC50
[2] = HEK293 cells stably expressing human NR1/NR2B, glutamate 100 μM, glycine 50 μM, read-out: NR2B IC50
[3] = as printed in the CYP2D6 table, read-out: NR2B IC50

Sequence of human NR1/NR2B (Q13224 27-1484, other chains not shown): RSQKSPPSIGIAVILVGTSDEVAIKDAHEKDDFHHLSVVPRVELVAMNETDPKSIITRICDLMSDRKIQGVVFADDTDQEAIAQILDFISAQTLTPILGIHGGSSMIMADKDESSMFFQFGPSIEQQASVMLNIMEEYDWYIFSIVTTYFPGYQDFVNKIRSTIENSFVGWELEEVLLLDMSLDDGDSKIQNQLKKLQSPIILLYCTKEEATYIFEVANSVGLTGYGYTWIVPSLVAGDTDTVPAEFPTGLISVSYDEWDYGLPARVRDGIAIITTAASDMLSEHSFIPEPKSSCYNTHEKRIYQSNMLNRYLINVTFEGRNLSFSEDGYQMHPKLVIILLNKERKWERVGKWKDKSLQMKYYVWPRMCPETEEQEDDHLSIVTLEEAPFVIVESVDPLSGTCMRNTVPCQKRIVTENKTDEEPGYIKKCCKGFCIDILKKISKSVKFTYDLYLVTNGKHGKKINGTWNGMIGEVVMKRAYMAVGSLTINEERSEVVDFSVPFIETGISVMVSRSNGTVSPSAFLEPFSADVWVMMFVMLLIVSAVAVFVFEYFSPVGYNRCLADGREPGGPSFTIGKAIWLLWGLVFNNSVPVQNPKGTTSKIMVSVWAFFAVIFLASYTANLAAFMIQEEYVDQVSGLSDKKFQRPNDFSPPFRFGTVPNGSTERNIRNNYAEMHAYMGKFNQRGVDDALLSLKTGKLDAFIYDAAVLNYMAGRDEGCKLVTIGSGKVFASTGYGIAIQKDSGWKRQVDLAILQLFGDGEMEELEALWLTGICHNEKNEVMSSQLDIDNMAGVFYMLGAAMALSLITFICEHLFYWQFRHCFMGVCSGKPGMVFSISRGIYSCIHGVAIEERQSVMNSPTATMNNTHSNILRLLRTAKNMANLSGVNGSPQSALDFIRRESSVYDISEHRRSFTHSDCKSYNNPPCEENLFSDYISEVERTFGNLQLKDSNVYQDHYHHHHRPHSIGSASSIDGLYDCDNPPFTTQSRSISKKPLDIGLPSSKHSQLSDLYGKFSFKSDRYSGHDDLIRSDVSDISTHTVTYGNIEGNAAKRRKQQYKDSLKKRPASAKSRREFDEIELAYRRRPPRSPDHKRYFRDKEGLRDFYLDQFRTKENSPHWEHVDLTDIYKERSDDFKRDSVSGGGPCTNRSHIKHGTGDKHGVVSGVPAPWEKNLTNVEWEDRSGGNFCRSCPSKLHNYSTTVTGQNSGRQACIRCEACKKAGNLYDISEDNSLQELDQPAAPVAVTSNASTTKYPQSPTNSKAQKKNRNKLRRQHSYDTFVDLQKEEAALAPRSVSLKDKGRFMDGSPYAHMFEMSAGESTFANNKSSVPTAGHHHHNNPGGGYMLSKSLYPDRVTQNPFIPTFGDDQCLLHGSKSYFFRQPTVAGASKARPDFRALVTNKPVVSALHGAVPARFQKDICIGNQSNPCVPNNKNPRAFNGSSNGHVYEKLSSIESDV
Sequence of human NR1/NR2A (Q12879 23-1464, other chains not shown): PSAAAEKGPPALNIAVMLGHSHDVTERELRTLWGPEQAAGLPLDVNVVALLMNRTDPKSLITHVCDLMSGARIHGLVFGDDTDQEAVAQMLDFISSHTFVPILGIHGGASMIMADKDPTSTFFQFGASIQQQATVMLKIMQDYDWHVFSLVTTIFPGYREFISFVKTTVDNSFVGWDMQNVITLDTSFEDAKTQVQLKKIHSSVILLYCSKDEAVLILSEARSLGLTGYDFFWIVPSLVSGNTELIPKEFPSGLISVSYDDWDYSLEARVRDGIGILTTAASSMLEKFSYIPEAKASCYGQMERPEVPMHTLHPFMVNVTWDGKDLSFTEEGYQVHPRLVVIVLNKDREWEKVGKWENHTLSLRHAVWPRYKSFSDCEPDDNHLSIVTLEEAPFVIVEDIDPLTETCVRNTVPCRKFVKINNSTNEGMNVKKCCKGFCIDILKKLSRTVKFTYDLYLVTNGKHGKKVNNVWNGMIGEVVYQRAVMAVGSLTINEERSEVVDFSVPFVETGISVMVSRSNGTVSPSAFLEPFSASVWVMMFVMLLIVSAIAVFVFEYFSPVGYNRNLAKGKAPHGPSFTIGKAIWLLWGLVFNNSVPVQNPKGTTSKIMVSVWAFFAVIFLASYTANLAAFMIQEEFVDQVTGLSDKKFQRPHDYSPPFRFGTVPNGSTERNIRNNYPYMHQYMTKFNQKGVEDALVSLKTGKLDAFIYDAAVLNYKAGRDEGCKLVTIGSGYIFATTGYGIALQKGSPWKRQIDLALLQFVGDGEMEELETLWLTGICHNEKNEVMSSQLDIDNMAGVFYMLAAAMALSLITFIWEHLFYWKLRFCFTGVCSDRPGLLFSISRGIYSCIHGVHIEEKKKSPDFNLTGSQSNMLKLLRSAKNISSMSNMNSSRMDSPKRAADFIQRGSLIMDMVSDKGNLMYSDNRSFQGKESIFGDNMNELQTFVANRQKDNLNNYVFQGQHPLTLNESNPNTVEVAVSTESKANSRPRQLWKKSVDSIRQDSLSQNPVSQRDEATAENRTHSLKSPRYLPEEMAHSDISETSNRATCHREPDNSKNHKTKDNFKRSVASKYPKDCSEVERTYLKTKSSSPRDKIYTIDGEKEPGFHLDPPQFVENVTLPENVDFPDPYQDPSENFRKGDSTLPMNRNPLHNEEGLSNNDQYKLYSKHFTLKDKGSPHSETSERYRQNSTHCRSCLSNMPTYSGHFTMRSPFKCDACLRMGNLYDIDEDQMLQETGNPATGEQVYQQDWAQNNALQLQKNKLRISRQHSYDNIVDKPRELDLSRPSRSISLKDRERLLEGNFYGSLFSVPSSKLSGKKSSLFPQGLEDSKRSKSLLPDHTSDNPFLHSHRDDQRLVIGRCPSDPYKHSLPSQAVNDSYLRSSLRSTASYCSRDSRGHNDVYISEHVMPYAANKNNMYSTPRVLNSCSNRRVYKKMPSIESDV
Sequence of hERG channel (Q12809 whole entry): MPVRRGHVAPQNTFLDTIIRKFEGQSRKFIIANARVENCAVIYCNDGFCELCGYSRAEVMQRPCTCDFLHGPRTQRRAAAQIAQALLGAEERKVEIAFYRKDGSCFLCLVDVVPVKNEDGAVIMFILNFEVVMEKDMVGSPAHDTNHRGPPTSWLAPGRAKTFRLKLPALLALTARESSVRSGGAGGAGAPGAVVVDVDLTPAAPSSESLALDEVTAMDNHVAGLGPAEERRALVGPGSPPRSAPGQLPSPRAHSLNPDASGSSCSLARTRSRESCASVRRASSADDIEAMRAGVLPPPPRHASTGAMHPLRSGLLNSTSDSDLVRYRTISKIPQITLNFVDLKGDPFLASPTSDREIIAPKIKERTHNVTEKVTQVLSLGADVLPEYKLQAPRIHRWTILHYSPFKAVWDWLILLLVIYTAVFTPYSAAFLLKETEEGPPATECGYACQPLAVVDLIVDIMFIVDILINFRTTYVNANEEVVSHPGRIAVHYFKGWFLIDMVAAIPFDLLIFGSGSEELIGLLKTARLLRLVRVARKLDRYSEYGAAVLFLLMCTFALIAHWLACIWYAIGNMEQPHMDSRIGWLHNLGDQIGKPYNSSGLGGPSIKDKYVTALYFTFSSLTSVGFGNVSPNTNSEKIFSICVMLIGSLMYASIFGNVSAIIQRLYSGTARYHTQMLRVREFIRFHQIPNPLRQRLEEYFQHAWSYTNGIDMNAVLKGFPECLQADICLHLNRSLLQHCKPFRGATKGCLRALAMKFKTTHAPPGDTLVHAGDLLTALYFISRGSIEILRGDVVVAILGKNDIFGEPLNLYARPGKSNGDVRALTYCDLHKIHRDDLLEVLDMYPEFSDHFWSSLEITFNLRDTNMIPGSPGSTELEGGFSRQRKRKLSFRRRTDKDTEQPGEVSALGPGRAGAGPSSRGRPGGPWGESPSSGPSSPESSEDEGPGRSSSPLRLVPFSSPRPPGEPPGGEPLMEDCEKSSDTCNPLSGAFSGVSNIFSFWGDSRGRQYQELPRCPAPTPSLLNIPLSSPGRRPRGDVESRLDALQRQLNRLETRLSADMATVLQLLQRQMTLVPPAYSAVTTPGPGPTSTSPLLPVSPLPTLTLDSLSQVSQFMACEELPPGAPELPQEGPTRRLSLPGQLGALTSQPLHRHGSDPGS
Sequence of CYP2D6 (P10635 whole entry): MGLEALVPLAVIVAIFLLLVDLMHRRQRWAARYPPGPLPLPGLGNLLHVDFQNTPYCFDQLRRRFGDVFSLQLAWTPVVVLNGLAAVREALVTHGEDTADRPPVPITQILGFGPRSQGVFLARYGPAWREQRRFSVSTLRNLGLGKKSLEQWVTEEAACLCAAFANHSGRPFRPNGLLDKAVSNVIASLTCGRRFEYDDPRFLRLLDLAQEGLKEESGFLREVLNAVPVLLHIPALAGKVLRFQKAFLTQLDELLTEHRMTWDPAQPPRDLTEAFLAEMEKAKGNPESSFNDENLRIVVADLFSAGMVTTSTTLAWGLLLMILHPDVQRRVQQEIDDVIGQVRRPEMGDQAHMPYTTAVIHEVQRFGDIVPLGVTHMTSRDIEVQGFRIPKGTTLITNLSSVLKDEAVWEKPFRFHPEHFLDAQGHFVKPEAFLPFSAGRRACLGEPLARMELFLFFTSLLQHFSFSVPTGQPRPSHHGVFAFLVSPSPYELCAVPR

With `Cc1ccc(C(F)(F)CN2CCC(Nc3ncnc4[nH]ccc34)CC2)nc1` [Compound C-4, N-(1-(2,2-difluoro-2-(5-methylpyridin-2-yl)ethyl)piperidin-4-yl)-7H-pyrrolo[2,3-d]pyrimidin-4-amine] the IC50 (human NR1/NR2B; read-out: NR2B IC50) was 0.035 µM, the IC50 (human NR1/NR2B; read-out: hNR2B IC50) was 0.035 µM and the IC50 (human NR1/NR2A) was > 10 µM. The IC50 (hERG channel) was 11.4 µM.
`FC(F)c1ccc(C(F)(F)CN2CCC(Nc3ncnc4[nH]ccc34)CC2)cc1` [Compound C-179, N-(1-(2-(4-(difluoromethyl)phenyl)-2,2-difluoroethyl)piperidin-4-yl)-7H-pyrrolo[2,3-d]pyrimidin-4-amine] was tested, and the IC50 (human NR1/NR2A; [1]) was > 10 µM and the IC50 (CYP2D6) was 4.9 µM.
`CN(C)CCCN1c2ccccc2CCc2ccccc21` [imipramine] was tested, and the “antidepressant activity (immobility time)” value (Male mice (strain NLMN)) was “expected antidepressant activity”.
With `Cc1ccc(C(F)(F)CN2CCC(Nc3ncnc4[nH]ccc34)CC2)cc1` [Compound C-177, N-(1-(2,2-difluoro-2-p-tolylethyl)piperidin-4-yl)-7H-pyrrolo[2,3-d]-pyrimidin-4-amine] the IC50 (human NR1/NR2B; read-out: NR2B IC50) was 0.027 µM and the IC50 (human NR1/NR2A) was > 10 µM.
With `Cn1c(=O)c2[nH]cnc2n(C)c1=O` [theophylline] the “pro-/anticonvulsant activity (electroconvulsive threshold)” value (Rats) was “expected pro- and anticonvulsant activities”.
For `FC(F)(F)c1ccc(C(F)(F)CN2CCC(Nc3ncnc4[nH]ccc34)CC2)cc1` [Compound C-178, N-(1-(2,2-difluoro-2-(4-(trifluoromethyl)phenyl)ethyl)piperidin-4-yl)-7H-pyrrolo-[2,3-d]pyrimidin-4-amine], the IC50 (human NR1/NR2B; [2]) was 0.064 µM, the IC50 (human NR1/NR2B; [3]) was 0.064 µM and the IC50 (human NR1/NR2A; [1]) was > 10 µM. The IC50 (CYP2D6) was 6.7 µM.
`CN1C(=O)CN=C(c2ccccc2)c2cc(Cl)ccc21` [diazepam] was tested, and the “pro-/anticonvulsant activity (electroconvulsive threshold)” value (Rats) was “expected pro- and anticonvulsant activities”.
`Fc1cc(C(F)(F)F)cnc1C(F)(F)CN1CCC(Nc2ncnc3[nH]ccc23)CC1` [Compound C-18, N-(1-(2,2-difluoro-2-(3-fluoro-5-(trifluoromethyl)pyridin-2-yl)-ethyl)piperidin-4-yl)-7H-pyrrolo[2,3-d]pyrimidin-4-amine] showed an IC50 (human NR1/NR2B; [2]) of 0.084 µM.
With `Cc1ccc(C(F)(F)CN2CCC(N(C)c3ncnc4[nH]ccc34)CC2)nc1` [Compound C-47, N-(1-(2,2-difluoro-2-(5-methylpyridin-2-yl)ethyl)piperidin-4-yl)-N-methyl-7H-pyrrolo[2,3-d]pyrimidin-4-amine] the IC50 (human NR1/NR2B; read-out: NR2B IC50) was 0.14 µM and the IC50 (human NR1/NR2A) was > 10 µM.
`Cc1ccc(C(F)(F)CN2CCC(Nc3ncnc4[nH]ccc34)CC2)cn1` [Compound C-128, N-(1-(2,2-difluoro-2-(6-methylpyridin-3-yl)ethyl)piperidin-4-yl)-7H-pyrrolo-[2,3-d]pyrimidin-4-amine] was tested, and the IC50 (human NR1/NR2B; read-out: NR2B IC50) was 0.089 µM, the IC50 (human NR1/NR2B; read-out: hNR2B IC50) was 0.089 µM and the IC50 (human NR1/NR2A) was > 10 µM. It also gave an IC50 (hERG channel) of 28 µM.
In the case of `Cc1cnc(C(F)(F)CN2CCC(Nc3ncnc4[nH]ccc34)CC2)c(F)c1` [Compound C-17, N-(1-(2,2-difluoro-2-(3-fluoro-5-methylpyridin-2-yl)ethyl)piperidin-4-yl)-7H-pyrrolo[2,3-d]pyrimidin-4-amine], the IC50 (human NR1/NR2B; read-out: NR2B IC50) is reported as 0.044 µM and the IC50 (human NR1/NR2A) is reported as > 10 µM.
`FCc1ccc(C(F)(F)CN2CCC(Nc3ncnc4[nH]ccc34)CC2)nc1` [Compound C-7, N-(1-(2,2-difluoro-2-(5-(fluoromethyl)pyridin-2-yl)ethyl)piperidin-4-yl)-7H-pyrrolo[2,3-d]pyrimidin-4-amine] was tested, and the IC50 (human NR1/NR2B; read-out: NR2B IC50) was 0.014 µM and the IC50 (human NR1/NR2A) was > 10 µM.
`FC(F)(F)Oc1ccc(C(F)(F)CN2CCC(Nc3ncnc4[nH]ccc34)CC2)nc1` [Compound C-11, N-(1-(2,2-difluoro-2-(5-(trifluoromethoxy)pyridin-2-yl)ethyl)piperidin-4-yl)-7H-pyrrolo[2,3-d]pyrimidin-4-amine] showed an IC50 (human NR1/NR2B; [2]) of 0.043 µM.
With `Fc1ccc(C(F)(F)CN2CCC(Nc3ncnc4[nH]ccc34)CC2)nc1` [Compound C-2, N-(1-(2,2-difluoro-2-(5-fluoropyridin-2-yl)ethyl)piperidin-4-yl)-7H-pyrrolo[2,3-d]-pyrimidin-4-amine] the IC50 (human NR1/NR2B; read-out: NR2B IC50) was 0.124 µM and the IC50 (human NR1/NR2A) was > 10 µM.
For `Cc1cnc(C(F)(F)CN2CCC(Nc3ncnc4[nH]ccc34)CC2)cn1` [Compound C-230, N-(1-(2,2-difluoro-2-(5-methylpyrazin-2-yl)ethyl)piperidin-4-yl)-7H-pyrrolo[2,3-d]pyrimidin-4-amine], the IC50 (human NR1/NR2B; read-out: NR2B IC50) was 0.088 µM, the IC50 (human NR1/NR2B; read-out: hNR2B IC50) was 0.088 µM and the IC50 (human NR1/NR2A) was > 10 µM. The IC50 (hERG channel) was 13.8 µM.
For `FC(F)(CN1CCC(Nc2ncnc3[nH]ccc23)CC1)c1ccc(Cl)cc1` [Compound C-176, N-(1-(2-(4-chlorophenyl)-2,2-difluoroethyl)piperidin-4-yl)-7H-pyrrolo[2,3-d]pyrimidin-4-amine], the IC50 (human NR1/NR2B; read-out: NR2B IC50) was 0.026 µM and the IC50 (human NR1/NR2A) was > 10 µM.
Work on `FC(F)c1ccc(C(F)(F)CN2CCC(Nc3ncnc4[nH]ccc34)CC2)nc1` [Compound C-6, N-(1-(2-(5-(difluoromethyl)pyridin-2-yl)-2,2-difluoroethyl)piperidin-4-yl)-7H-pyrrolo[2,3-d]pyrimidin-4-amine] yielded an IC50 (human NR1/NR2B; [2]) of 0.031 µM.
With `FC(F)(CN1CCC(Nc2ncnc3[nH]ccc23)CC1)c1ccc(Cl)cn1` [Compound C-3, N-(1-(2-(5-chloropyridin-2-yl)-2,2-difluoroethyl)piperidin-4-yl)-7H-pyrrolo-[2,3-d]pyrimidin-4-amine] the IC50 (human NR1/NR2A) was > 10 µM, the IC50 (hERG channel) was 7 µM and the IC50 (CYP2D6) was 12 µM.
Molecule `FC(F)(F)c1ccc(C(F)(F)CN2CCC(Nc3ncnc4[nH]ccc34)CC2)nc1` [Compound C-5, N-(1-(2,2-difluoro-2-(5-(trifluoromethyl)pyridin-2-yl)ethyl)piperidin-4-yl)-7H-pyrrolo[2,3-d]pyrimidin-4-amine] has an IC50 (human NR1/NR2B; [2]) of 0.03 µM, an IC50 (human NR1/NR2B; [3]) of 0.03 µM and an IC50 (human NR1/NR2B; as printed in the hERG table, read-out: hNR2B IC50) of 0.03 µM. For the same molecule, the IC50 (hERG channel) was 9.5 µM and the IC50 (CYP2D6) was 33 µM.
For `Fc1cc(Cl)cnc1C(F)(F)CN1CCC(Nc2ncnc3[nH]ccc23)CC1` [Compound C-16, N-(1-(2-(5-chloro-3-fluoropyridin-2-yl)-2,2-difluoroethyl)piperidin-4-yl)-7H-pyrrolo[2,3-d]pyrimidin-4-amine], the IC50 (human NR1/NR2B; read-out: NR2B IC50) was 0.047 µM and the IC50 (human NR1/NR2A) was > 10 µM.
`Fc1ccc(C(F)(F)CN2CCC(Nc3ncnc4[nH]ccc34)CC2)cc1` [Compound C-175, N-(1-(2,2-difluoro-2-(4-fluorophenyl)ethyl)piperidin-4-yl)-7H-pyrrolo[2,3-d]-pyrimidin-4-amine] was tested, and the IC50 (human NR1/NR2B; read-out: NR2B IC50) was 0.022 µM, the IC50 (human NR1/NR2B; read-out: hNR2B IC50) was 0.022 µM and the IC50 (human NR1/NR2A) was > 10 µM. For the same molecule, the IC50 (hERG channel) was 4.5 µM and the IC50 (CYP2D6) was 2.3 µM.
